Data as given in US20100273748A1, “ANTIMICROBIAL THERAPY” (priority 2006, published 2010).

Experiments:
CD14 = test: qPCR of CD14 mRNA in cultured keratinocytes; type: cell-based, human; settings: 24 hours
Protocol: (§1) Cell culture and stimuli. Human keratinocytes were grown in serum-free EpiLife® cell culture media (Cascade Biologics; Portland, Oreg.) containing 0.06 mM Ca2+ and 1× EpiLife® defined growth supplement (EDGS) at 37° C. under standard tissue culture conditions. Stock cultures were maintained for up to five passages in this media with the addition of 50 U/mL penicillin and 50 μg/mL streptomycin. HaCaT keratinocytes were cultured in DMEM (Sigma, St. Louis, Mo.) with 10% FCS. Cells at 50-70% confluence were stimulated in fresh medium after preincubation with 1,25(OH)2 vitamin D3 (1,25D3; 0.1-100 nM, 4-24 h; Sigma). Alternatively, NHEK were stimulated in the presence of 1,25D3 (0.1-100 nM). Stimuli included TLR2,6 ligands Malp-2 (0.001-0.5 μg/ml; Alexis Biochemicals, Carlsbad, Calif.), FSL-1 (1-2 μg/ml, Invivogen, San Diego, Calif.) and zymosan (50 μg/ml; Invivogen), as well as flagellin (50 ng/ml; Alexis), LPS (1 μg/ml; Sigma), lipoteichoic acid (LTA; 10 μg/ml; Sigma), 19 kDA lipopeptide (10 μg/ml, a kind gift from S. Krutzik, Division of Dermatology, UCLA), CpG DNA (10 μg/ml; Sigma), Ca2+ (1.7 mM), LPS (1 μg/ml; Sigma), TNFα (20 ng/ml; Chemicon Temecula, Calif.) and TGFβ1 (0.1-1 μg/ml; R&D Systems, Minneapolis, Minn.). A TLR2 blocking antibody (αTLR2; clone TL2.1, 5 μg/ml, eBioscience, San Diego, Calif.) was utilized to investigate the role of TLR2 signaling. Furthermore, keratinocytes were pretreated with a vitamin D receptor antagonist (VDR-antagonist ZK159222 Schering AG; 10^-7M) or the CYP inhibitor itraconazole (ITRA; 10^-7M) before stimulation with TGFβ in the presence of 25OH vitamin D3 (25D3, 10 nM, Sigma).
(§2) Real-time RT-PCR (qPCR). RNA was extracted from cells, epidermal constructs or tissue using Trizol® and 1 μg RNA was reverse transcribed using iScript® (BioRad, Hercules, Calif.). Expression of cathelicidin and GAPDH was analysed by real-time RT-PCR. Predeveloped Taqman® assay probes (ABI, Foster City, Calif.) were used for the analyses of the expression of CYP24A1 (24-hydroxylase), CYP27B1 (1α-hydroxylase), CD14, CD36, TLR1, TLR2, TLR4, TLR6 and murine CD14. All analyses were performed in triplicate from 2-5 independent experiments in an ABI Prism® 7000 Sequence Detection System. Fold induction relative to the vehicle treated control in in vitro experiments was calculated using the comparative Ct method, where ΔΔCt is ΔCt(stimulant)-ΔCt(vehicle), ΔCt is Ct(gene)-Ct(GAPDH) and Ct is the cycle at which an arbitrary detection threshold is crossed. For quantification of transcript abundance in tissue samples target gene expression was normalized to GAPDH and compared to non-treated or non-injured skin.

TLR2 = test: qPCR of TLR2 mRNA in cultured keratinocytes; type: cell-based, human; settings: 1,25D3 100 nM, keratinocyte monolayers, 24 hours
Protocol: as §1, §2

cathelicidin [1] = test: qPCR of cathelicidin mRNA in cultured keratinocytes; type: cell-based, human; settings: for increase of cathelicidin mRNA: 24 hours
acetylated histone H4 = test: Histone H4 acetylation in keratinocytes (immunofluorescence, Western blot); type: cell-based, human; settings: HDACi in the presence of 1,25D3
Protocol: Panel a; Immunofluorescence staining of acetylated histone H4 protein in NHEK treated with HDACi in the presence or absence of 1,25D3. […] Panel b: Western blot of acetylated histone 4 from keratinocytes treated with the HDACi butyrate or TLR agonists. […] Bar=30 μM.
The abundance of acetylated histone was directly measured to confirm the inhibitory effects of butyrate and TSA on HDACs. […] To determine if changes in histone acetylation occur upon stimulation of keratinocytes with TLR ligands NHEK were stimulated with different TLR ligands and histone acetylation was assessed.

cathelicidin [2] = test: Cathelicidin protein immunostaining in NHEK; type: cell-based, human; settings: butyrate (2 mM) and 1,25D3 (10^−8M), 24 hours
Protocol: Panel a: NHEKs were stimulated with 1,25D3 (10^−9-10^−7 M) in the presence of the HDAC inhibitor butyrate (BUT; 2 mM) for 24 hours. mRNA abundance was determined by real-time qPCR for cathelicidin and glyceraldehyde-3-phosphate dehydrogenase and normalized to vehicle-treated controls. […] Data shown are means (7SD) of the results from a single stimulation experiment performed in triplicates and are representative of at least three independent experiments (**P<0.01; ***P<0.001; two-way analysis of variance). Panel b: The HDAC inhibitor TSA (200 ng ml^−1) induces cathelicidin in the presence of 1,25D3 (10^−8M). Expression of cathelicidin is dependent on a functional VDR, as pretreatment with the VDR antagonist ZK159222 (10^−7 M) inhibits induction of cathelicidin with BUT (2 mM) in the presence of 1,25D3 (10^−8 M) after 24 hours. Expression of cathelicidin was determined by qPCR as described in Panel a. (*P<0.05; Student's t-test). […] Cells were stained with a polyclonal anti-LL-37 antibody (followed by an FITC-coupled secondary antibody) and nuclei detected with 4,6-diamidino-2-phenylindole (Bar=30 μM). […] NHEKs were stimulated with 1,25D3 (10^−8M) in combination with the HDAC inhibitor BUT (2 mM) for 24 hours, cells harvested and cell lysates co-incubated with S. aureus DmprF, and bacterial growth monitored over time to determine antimicrobial activity. […]

[3] = test system: Other TLRs and the TLR coreceptor CD36; test: qPCR of other TLRs and CD36 in cultured keratinocytes; type: cell-based; settings: cultured human keratinocytes exposed to 1,25D3
Protocol: (§3) Cell culture and stimuli. Human keratinocytes were grown in serum-free EpiLife® cell culture media (Cascade Biologics; Portland, Oreg.) containing 0.06 mM Ca2+ and 1× EpiLife® defined growth supplement (EDGS) at 37° C. under standard tissue culture conditions. Stock cultures were maintained for up to five passages in this media with the addition of 50 U/mL penicillin and 50 μg/mL streptomycin. HaCaT keratinocytes were cultured in DMEM (Sigma, St. Louis, Mo.) with 10% FCS. Cells at 50-70% confluence were stimulated in fresh medium after preincubation with 1,25(OH)2 vitamin D3 (1,25D3; 0.1-100 nM, 4-24 h; Sigma). Alternatively, NHEK were stimulated in the presence of 1,25D3 (0.1-100 nM). […]
(§4) Real-time RT-PCR (qPCR). […] Expression of cathelicidin and GAPDH was analysed by real-time RT-PCR. […] Fold induction relative to the vehicle treated control in in vitro experiments was calculated using the comparative Ct method, where ΔΔCt is ΔCt(stimulant)-ΔCt(vehicle), ΔCt is Ct(gene)-Ct(GAPDH) and Ct is the cycle at which an arbitrary detection threshold is crossed. For quantification of transcript abundance in tissue samples target gene expression was normalized to GAPDH and compared to non-treated or non-injured skin.

CYP24A1 = test: qPCR of CYP24A1 mRNA in cultured keratinocytes; type: cell-based, human; settings: 1,25D3 10^−8M, 24 hours
Protocol: as §3, §4

C=C1/C(=C\C=C2/CCC[C@]3(C)[C@@H]([C@H](C)CCCC(C)(C)O)CC[C@@H]23)C[C@@H](O)C[C@@H]1O [1,25D3, 1,25(OH)2 vitamin D3]
CD14 mRNA expression (CD14; 1,25D3 100 nM, keratinocyte monolayers): increases expression
CD14 transcript abundance (CD14; 1,25D3 10^−8M): strongly upregulated
TLR2 mRNA expression (TLR2): increases expression
increase of cathelicidin expression over cells without 1,25D3 (cathelicidin [1]; 1,25D3 0.1 nM, then Malp-2, dose dependent): up to 60 fold
increase of cathelicidin mRNA (cathelicidin [1]; 10^−7 M 1,25D3 in the absence of butyrate): about 75 fold
increase of cathelicidin mRNA (cathelicidin [1]; 10^−7 M 1,25D3 in the presence of butyrate (2 mM)): over 200 fold
acetylation of histone H4 (acetylated histone H4): further increased
cathelicidin peptide expression (immunostaining) (cathelicidin [2]): increase in cathelicidin peptide expression
expression of other TLRs and CD36 [3]: remained unchanged
CYP24A1 transcript abundance (CYP24A1): strongly upregulated
